How the values were obtained:
ToxT [1] = molecular target: T1, ToxT (Vibrio cholerae serotype O1, UniProt A5F384); settings: cited from earlier work
T1 construct: Full-length ToxT was cloned from Vibrio cholerae 0395; made in house; host or cells: E. coli BL21-CODONPLUS (DE3)-RIL
T1 sequence (A5F384 1-276): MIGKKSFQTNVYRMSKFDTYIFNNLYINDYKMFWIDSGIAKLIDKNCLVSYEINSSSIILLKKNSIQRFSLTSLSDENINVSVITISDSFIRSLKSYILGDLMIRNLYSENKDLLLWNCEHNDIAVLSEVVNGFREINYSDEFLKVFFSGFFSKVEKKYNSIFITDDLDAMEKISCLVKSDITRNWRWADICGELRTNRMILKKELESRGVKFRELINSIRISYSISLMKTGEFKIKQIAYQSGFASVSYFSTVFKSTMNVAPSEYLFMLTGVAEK

ToxT [2] = molecular target: T1, ToxT; test: Electrophoretic mobility shift assay of ToxT binding to tcp promoter DNA; format: biochemical; settings: fatty acid 0.002%; 30 minutes at 30° C.
Method: Electrophoretic Mobility Shift Assays. Single-stranded, forty base-pair complimentary oligos (Operon) from the tcp promoter (5′-GTGTTATTAAAAAAATAAAAAAACACAGCAAAAAATGACA-3′; SEQ ID NO:1) were end labeled with a biotin-conjugated dUTP using the Biotin 3′ End Labeling Kit (Pierce) following the manufacturer's instructions and then annealed to form double-stranded fragments. EMSA's were carried out using the LightShift Chemiluminescent EMSA Kit (Pierce) following the manufacturer's instructions. Briefly, 2.5 pmole, 4 pmole, 5 pmole of ToxT were mixed with 50 fmole of double-stranded labeled DNA in a binding buffer (10 mM Tris pH 7.5, 1 mM EDTA, 100 mM KCl, 5 mM MgCl2, 1 mM DTT, 0.3 mg mL^−1 BSA, 150 μg herring sperm DNA, and 10% glycerol). Fatty acids were dissolved in methanol and added to a final concentration of 0.002% using the same volume of methanol as a control. To show specificity, a 70-fold molar excess of unlabeled double-stranded tcp fragment and a 70-fold molar excess of unlabeled nonspecific DNA (42 base pairs) were added as controls. Reactions were then incubated for 30 minutes at 30° C. and loaded on a 1×TBE 6% polyacrylamide gel at 4° C. then transferred onto a positively charged membrane (HYBOND XL, GE Healthcare) and detected by chemiluminescence. An EMSA experiment was conducted using the control reagents from the LightShift Chemiluminescent EMSA Kit following the manufacturer's instructions while adding methanol and 0.02% fatty acids.

tcp and ctx operons = test: β-galactosidase assay of tcp-lacZ and ctx-lacZ fusions in V. cholerae cultures with added fatty acids; format: cell-based, Vibrio cholerae; settings: fatty acid at 0.02% in methanol; LB medium pH 6.5, 30° C., 18 hours
Method: Expression is based upon β-galactosidase activity of tcpA-lacZ and ctx-lacZ fusion constructs, respectively. Cells were grown in LB medium pH 6.5 at 30° C. for 18 hours +/− the indicated fatty acids at 0.02% dissolved in methanol. C, control with methanol; PA, sodium palmitate; POA, palmitoleic acid; OA, oleic acid.
β-galactosidase Assays. β-galactosidase activity was determined by conventional methods (Miller (1972) Experiments in Molecular Genetics (Cold Spring Harbor Laboratory Press, Cold Spring Harbor, N.Y.). The tcp-lacZ and ctx-lacZ strains MBN135 (Nye, et al. (2000) J. Bacteriol. 182:4295-4303) and KSK218 (Skorupski & Taylor (1997) Proc. Natl. Acad. Sci. USA 94:265-270) were grown for 18 hours in LB media pH 6.5 at 30° C. Either methanol or the indicated fatty acids were added to 0.02%.
To address whether cis-palmitoleate was capable of influencing the activity of ToxT, different UFAs and SFAs were added to cultures of V. cholerae strains carrying transcriptional fusions to the tcp and ctx operons. […].

ToxT-activated genes = settings: cited from earlier work
V. cholerae strain 0395 = test: Infant mouse cholera model, survival at 48 hours post-infection; format: in vivo; settings: for protection of mice from cholera / survival versus control and methanol groups: infant mouse, 48 hours post-infection, Tukey HSD p<0.05
Method: FIG. 3 is a means diamond plot. Mouse lethality data was converted to survival rates based on percentage of 48 hours at time of death. A one-way ANOVA was used to test for survival rate differences among the five groups in the challenge assay. […] Arcsine transformations were performed on the data to remove possible bias caused by percentages but there was no difference between transformed and non-transformed data. A means diamond illustrates a sample mean and 95% confidence interval. The line across each diamond represents the group mean. The vertical span of each diamond represents the 95% confidence interval for each group. Overlap marks are drawn above and below the group mean. […] The horizontal extent of each group along the x-axis (the horizontal size of the diamond) is proportional to the sample size of each level of the x variable. It follows that the narrower diamonds are usually the taller ones because fewer data points yield a less precise estimate of the group mean. Control is bacteria in broth. MeOH is methanol and MeOHC received a second dose of methanol 1 hour after infection. PA is 0.2% palmiteoleic acid dissolved in methanol and PAC includes a second dose of 0.2% palmiteoleic acid administered 1 hour after infection.
Palmiteoleic acid (0.2%) dissolved in methanol was co-administered orally with approximately a 10 lethal dose 50 (LD50) of V. cholerae strain 0395. In some cases an additional administration of palmiteoleic acid was given to the mice one hour after infection. The ability of palmiteoleic acid to prevent death from cholera was assessed at 48 hours post-infection. The results are presented in FIG. 3 as a means diamond plot.

ToxT [3] = molecular target: ToxT (Vibrio cholerae O395, UniProt A5F384 A5F384:1-276); test: EMSA; bound at 100-fold molar excess of protein (5 pmol ToxT to 50 fmol DNA), not at 50-fold; competed by 70-fold unlabeled probe; 5 mM MgCl2, 100 mM KCl, pH 7.5, 30; settings: tags: full-length; expressed as intein/CBD fusion (pTXB1, NEB IMPACT-CN), tag cleaved with DTT; label: 3' biotin-dUTP

O=C(O)CCCN1C(=O)c2cccc3cccc(c23)C1=O [virstatin, 4-[N-(1,8-naphthalimide)]-n-butyric acid]
effect on ToxT dimerization and activation of tcp and ctx promoter transcription (ToxT [1]): interferes with ToxT's ability to dimerize and activate transcription of the tcp and ctx promoters

CCCCCCCCCCCCCCCC(=O)O [palmitic acid]
effect on ToxT binding to DNA (40 base-pair tcp promoter probe) (ToxT [2]): no effect on ToxT binding | reduction of expression of tcp and ctx operons (β-galactosidase activity of lacZ fusions) (tcp and ctx operons): two-fold | inhibition of expression of ToxT-activated genes (ToxT-activated genes): not shown to inhibit

CCCCCCCC/C=C\CCCCCCCC(=O)O [oleic acid]
effect on ToxT binding to DNA (40 base-pair tcp promoter probe) (ToxT [2]): completely prevented ToxT from binding to DNA | reduction of expression of tcp and ctx operons (β-galactosidase activity of lacZ fusions) (tcp and ctx operons): 10-15 fold | inhibition of expression of ToxT-activated genes (ToxT-activated genes): strongly inhibit

CCCCC/C=C\C/C=C\CCCCCCCC(=O)O [linoleic acid]
inhibition of expression of ToxT-activated genes (ToxT-activated genes): strongly inhibit

CCCCC/C=C\C/C=C\C/C=C\C/C=C\CCCC(=O)O [arachidonic acid]
inhibition of expression of ToxT-activated genes (ToxT-activated genes): strongly inhibit

CCCCCC/C=C\CCCCCCCC(=O)O [palmitoleic acid, (Z)-9-hexadecenoic acid]
effect on ToxT binding to DNA (40 base-pair tcp promoter probe) (ToxT [2]): completely prevented ToxT from binding to DNA | reduction of expression of tcp and ctx operons (β-galactosidase activity of lacZ fusions) (tcp and ctx operons): 6-8 fold | mean survival rate (percentage of 48 hours at time of death) (V. cholerae strain 0395; 0.2% co-administered orally plus second dose 1 hour after infection, group PAC {5}): 89.389% | mean survival rate (percentage of 48 hours at time of death) (V. cholerae strain 0395; 0.2% in methanol co-administered orally with about 10 LD50 V. cholerae 0395, group PA {4}): 80.093% | protection of mice from cholera / survival versus control and methanol groups (V. cholerae strain 0395; listed as PA): significantly higher survival rates | protection of mice from cholera / survival versus control and methanol groups (V. cholerae strain 0395; listed as palmiteoleic acid): extremely effective at protecting the mice from cholera

CCCCCCCCCCCCCCCCCC(=O)O [stearic acid]
inhibition of expression of ToxT-activated genes (ToxT-activated genes): not shown to inhibit

B1: tcp promoter 40 bp toxbox probe (dsDNA)
DNA 1: GTGTTATTAAAAAAATAAAAAAACACAGCAAAAAATGACA
DNA 2: TGTCATTTTTTGCTGTGTTTTTTTATTTTTTTAATAACAC
binding result (ToxT [3]): binds

From patent US20120157529A1 (priority 2009, published 2012)
